Earlier results as cited in patent US11654095B2, “Method for dyeing keratinous material, comprising the use of an organosilicon compound, a chromophoric compound, a modified fatty acid ester and a sealing reagent II” (Henkel AG & Co. KGaA, priority 2019, dated 2023).
Read-outs that look alike come from different tables or passages of the source.

| solubility in water (water at 25° C.) | SMILES | solubility in water (25° C.) |
| --- | --- | --- |
|  | O=C([O-])c1c(Cl)c(Cl)c(Cl)c(Cl)c1-c1c2c(Br)cc(=O)c(Br)c-2oc2c(Br)c(O)cc(Br)c12.O=C([O-])c1c(Cl)c(Cl)c(Cl)c(Cl)c1-c1c2c(Br)cc(=O)c(Br)c-2oc2c(Br)c(O)cc(Br)c12.[Na+].[Na+] [Acid Red 92, disodium salt of 3,4,5,6-tetrachloro-2-(1,4,5,8-tetrabromo-6-hydroxy-3-oxoxanthen-9-yl)benzoic acid] | greater than 10 g/L |
|  | Nc1cc(S(=O)(=O)[O-])cc2cc(S(=O)(=O)[O-])c(N=Nc3ccccc3)c(O)c12.[Na+].[Na+] [Acid Red 33, disodium salt of 5-amino-4-hydroxy-3-(phenylazo)-naphthalene-2,7-disulphonate] | 2500 µg/mL |
| highly soluble | O=C([O-])C1=NN(c2ccc(S(=O)(=O)[O-])cc2)C(=O)C1N=Nc1ccc(S(=O)(=O)[O-])cc1.[Na+].[Na+].[Na+] (stereo not shown) [Acid Yellow 23, trisodium salt of 4,5-dihydro-5-oxo-1-(4-sulfophenyl)-4-((4-sulfophenyl)azo)-1H-pyrazole-3-carboxylic acid] |  |
|  | O=S(=O)([O-])c1ccc(N=Nc2c(O)ccc3ccccc23)cc1.[Na+] [Acid Orange 7, sodium salt of 4-[(2-hydroxy-1-naphthyl)azo]benzene sulphonate] | more than 7 g/L |
